Legend:
[1] = test system: prostate; conditions: young men under exogenic testosterone administration; cited from earlier work
[2] = test system: prostate; conditions: 8-month therapy, 23 men aged 40-65 years, 160 mg/day; cited from earlier work
[3] = test system: LNCaP prostate cells; test: Inhibition of androgen-dependent cell proliferation in LNCaP prostate cells (growth assay, cell number after 7 days); assay type: cell-based, human; conditions: androgen alone, FIG. 1
From the text: In the example of the inhibition of the androgen-dependent cell proliferation in LNCaP prostate cells, the biological mechanism of action of the combination of 17β-hydroxy-17α-methyl-estra-4,9,11-trien-3-one (R 1881)+the 17α-cyano-methyl-17β-hydroxy-estra-4,9-dien-3-one (DIENOGEST=DNG) was examined.
To this end, the human prostate cancer cell LNCaP was cultivated under routine conditions in Dulbecco's modified Eagle medium (DMEM) with the addition of 10% FCS (fetal calf serum).
The cells were then cultured for 2 to 6 passages with DMEM and 10% DCC-FCS (steroid-depleted FCS), before it was used in a growth assay with 5% DCC-FCS.
For the test, the cells were saturated in 24-well plates (10,000 cells/well and ml).
After 24 hours, the steroids that were dissolved in ethanol were added to fresh test medium (final concentration of ethanol 0.1%), and the cells were incubated for 7 days at 37° (5% CO2). The cell number was determined after this time in a cell counting and analysis system (CASY, Scharfe System GmbH).

[4] = test system: prostate of castrated male NMRI mice; test: Prostate weights of castrated mice after combined testosterone/gestagen treatment; assay type: in vivo
Experimental: The inhibition of a prostate growth that was induced by androgens and that was treated with a combination according to the invention, was also examined in the animal experiment.
To this end, 5 male NMRI mice of Møllegaard Breeding Centre Deutschland GmbH, Schönwalde weighing 28-30 g were castrated. Two weeks after the castration, testosterone propionate (TP) by itself—0.1 mg/animal—was administered to the control animals.
Also, two weeks after castration, the test animals were orally treated daily for one week with testosterone propionate (TP) 0.1 mg/animal/day s.c. and simultaneously with the following gestagens and the following dosages:
cyproterone acetate (CPA) at dosages of 0.1; 0.3; 1; 3 mg/animal/day dienogest (DNG) at dosages of 0.3; 1; 3; 10 mg/animal/day, chloromadinone acetate (CMA) at dosages 0.3; 1; 3; 10 mg/animal/day.
At the end of the test, the prostate weights of the mice were determined, and the test groups were compared.

CCCCCCC(=O)O[C@H]1CC[C@H]2[C@@H]3CCC4=CC(=O)CC[C@]4(C)[C@H]3CC[C@]12C [testosterone enanthate]
Prostate size by transrectal ultrasound [1]: an enlargement of the prostate was found

CCCCCCCCCCC(=O)O[C@H]1CC[C@H]2[C@@H]3CCC4=CC(=O)CC[C@]4(C)[C@H]3CC[C@]12C [testosterone undecanoate]
Increase in size of the prostate [2]: 12%

C[C@]1(O)CC[C@H]2[C@@H]3CCC4=CC(=O)CCC4=C3C=C[C@@]21C [R1881, 17β-hydroxy-17α-methyl-estra-4,9,11-trien-3-one]
Cell growth of LNCaP cells [3]: induces a cell growth

CCC(=O)O[C@H]1CC[C@H]2[C@@H]3CCC4=CC(=O)CC[C@]4(C)[C@H]3CC[C@]12C [TP, testosterone propionate]
Effect on prostate weight compared to the castrated and the intact control animals ([4]; 0.1 mg/animal/day): causes a clear increase of the prostate weight | Prostate weight (mean value ± S.D.) ([4]; TP 0.1 mg/animal alone (TP control), n = 5): 4.4 ± 0.7 mg

Reference: patent US20070078091A1, “Pharmaceutical combinations for compensating for a testosterone deficiency in men while simultaneously protecting the prostate” (priority 1998, published 2007)
